# Results taken from patent US20220288156A1, “TREATMENT” (QUEEN MARY UNIVERSITY OF LONDON, priority 2019, published 2022).
# Legend:
# [1] = test system: AAC model of heart failure; assay: Abdominal aortic constriction (AAC) pressure overload heart failure model, echocardiography; type: in vivo, mouse; details: for fractional shortening (FS %): prevention mode
# Excerpt: Abdominal AAC, a common experimental procedure, was used to elicit pressure overload-induced heart failure in murine models. AAC provides a time-dependent, reproducible model of HF characterised by a significant rise in left ventricular weight, deleterious myocardial dilation, and a reduction in cardiac inotropy, and rise in myocardial fibrosis. Physiologically this mimics some of the clinical features of human aortic stenosis.
# Male C57BL6 mice (Charles River) underwent AAC surgery at 4-5 weeks of age (between 20 and 22 g). Mice were anaesthetised with isoflurane, placed in a supine position on the procedure table, and an incision made along the ventral underbelly, extending from the xiphoid process of the sternum, down to the groin to reveal the abdominal muscle. The abdominal muscle was then cut the same distance along the linea alba to allow easy reattachment of the two halves. The two sides of the abdominal muscles were clipped back to reveal the abdominal gastrointestinal organs, and these were carefully manoeuvred to expose the underlying abdominal aorta. The aorta was cleaned of visceral fats, and carefully separated from parallel vasculature, whilst avoiding any spinal nerves. The abdominal aorta was then constricted using a 6-0 silk suture tied to the width of a 27-gauge needle at a position rostral to the renal artery bifurcation. Great care was taken to ensure the knot remained taut after tying. This was to ensure minimal variability amongst aortic lumen occlusion between animals, and therefore minimise differences in the degree of aortic stenosis. The skin and abdominal muscles were closed with a 6-0 silk suture thread. SHAM operated mice underwent the same operation with the exception of aortic constriction. In an effort to ensure reproducibility amongst AAC surgeries only male mice weighing between 20 and 22 g (correlating to 4-5 weeks of age) were used. Echocardiography was performed up to 3 days prior to surgery, 3 weeks following surgery, and then at 6 (and/or 12 weeks) following surgery. At the experimental end-point, mice were sacrificed and their lungs, kidneys and hearts excised. Hearts were halved longitudinally and either snap frozen in liquid nitrogen (for immunohistochemistry) or stored in an RNA later stabilisation solution (for RT-quantitative PCR) (ThermoFisher Scientific, Hertfordshire, UK).
# Cilengitide (Bachem) was stored as a […] solution in saline at −20° C. prior to use, before thawing and serial diluting to an appropriate concentration with sterile saline for use. Injections were administered 3 times per week at the indicated doses intraperitoneally (IP). Low dose Cilengitide (ldCil) is classified as 50 μg/kg (27).
# Cardiac function was assessed by transthoracic echocardiography using a VisualSonics Vevo 770 30-MHz transduction probe. Mice were anaesthetised with isoflurane (1.5% in O2), hair removed from their chest with hair removal cream, and then were placed in a supine position onto a warmed pad (46° C.). The chest was covered in ultrasound gel, and the transduction probe was positioned adjacent to the mitral valve, at the tips of the papillary muscles, and images were taken just below this to ensure positional reproducibility. LV internal diameter (LVID) and LV posterior wall thicknesses at diastole (d) and systole (s) were measured from short-axis M-mode images. LV ejection fraction (EF %) was calculated as follows: LVEF %=[(LVIDd)^3−(LVIDs)^3]/(LVIDd)^3×100; LV fractional shortening (FS %) was calculated as follows: LVFS %=(LVIDd−LVIDs)/LVIDd×100. Values were averaged across three beats. All efforts were made to ensure consistency between mouse echocardiographs, including: pad temperature to be maintained at 46° C., isoflurane anaesthesia at 1.5%, oxygen flow at 1.5 L/M, and cardiac function to be measured in the same anatomical location throughout.
# [2] = Mean arterial blood pressure in AAC model; type: in vivo, mouse; details: intervention mode; 6 weeks post-AAC surgery
# Method: Blood pressure was recorded in anaesthetised mice via intra-arterial cannulation of a carotid artery 6 weeks post-AAC surgery, using a Microtip pressure catheter (Millar instruments). Mice were placed in a supine position on a pre-warmed heating mat (46° C.), and a midline incision made extending the length of the neck with surgical scissors. The large salivary glands were gently moved laterally, and a single carotid artery was located for cannulation. The carotid artery was blunt dissected to remove visceral fats, and then ligated with surgical suture at its most rostral and caudal ends, leaving a space of roughly 2 mm in between. A small incision was made between the two ties using fine dissection spring-tip scissors, and a microtip pressure catheter was inserted into the artery. The region of the artery housing the catheter was tied in place, and the caudal tie loosened to allow blood flow into the pressure catheter. Mice were allowed to recover for 5 min, or until the blood pressure trace steadied. MABP was then averaged across a 30 s period using MATLAB analysis. All efforts were made to ensure mouse body temperature, and levels of anaesthesia in particular, remained constant between animals.
# [3] = intervention mode, AAC surgery, ldCil 50 μg/kg 3 times a week from 3-6 weeks post-surgery
smiles,measurement,setting,value
"CC(C)[C@H]1C(=O)N[C@@H](CCCN=C(N)N)C(=O)NCC(=O)N[C@@H](CC(=O)O)C(=O)N[C@H](Cc2ccccc2)C(=O)N1C [Cilengitide, c(f*VRGD)]",fractional shortening over time,"[1]; AAC surgery, ldCil 3-6 weeks post-surgery, between 3 and 6 weeks",elevated fractional shortening significantly
same,persistence of fractional shortening rescue after treatment cessation,"[1]; AAC surgery, ldCil 3-6 weeks post-surgery, followed to 12 weeks",sustained up until 12 weeks post-surgery
same,FS % over time,"[1]; SHAM surgery, ldCil 3-6 weeks post-surgery, between 3 and 6 weeks or 6 and 12 weeks",not significantly altered
same,endpoint FS %,[1]; [3],rescued
same,endpoint ejection fraction (EF %),[1]; [3],rescued
same,endpoint left ventricular internal diameter during systole (LVID),[1]; [3],rescued
same,fractional shortening (FS %),"[1]; AAC surgery, 50 μg/kg IP 3 times a week for 7 weeks immediately after surgery, endpoint 7 weeks",restored fractional shortening to that observed in SHAM treated mice
same,fractional shortening (FS %),"[1]; AAC surgery, 500 μg/kg IP 3 times a week for 7 weeks","but not 500 μg/kg, Cilengitide corrects the fractional shortening effects"
same,fractional shortening (FS %),"[1]; SHAM surgery, 50 μg/kg IP 3 times a week for 7 weeks",no significant effect
same,mean arterial blood pressure (MABP),[2],not affected
